Reference: BindingDB's records for doi:10.1016/j.bmcl.2009.10.099 (Merck Research Laboratories, 2010)
pIC50: −log10 of the molar value.

target: Cholesteryl ester transfer protein (Homo sapiens) (UniProt P11597); experiment: inhibition of human CETP assessed as cholesteryl ester transfer by fluorescence transfer assay
Sequence (P11597 whole entry, looked up): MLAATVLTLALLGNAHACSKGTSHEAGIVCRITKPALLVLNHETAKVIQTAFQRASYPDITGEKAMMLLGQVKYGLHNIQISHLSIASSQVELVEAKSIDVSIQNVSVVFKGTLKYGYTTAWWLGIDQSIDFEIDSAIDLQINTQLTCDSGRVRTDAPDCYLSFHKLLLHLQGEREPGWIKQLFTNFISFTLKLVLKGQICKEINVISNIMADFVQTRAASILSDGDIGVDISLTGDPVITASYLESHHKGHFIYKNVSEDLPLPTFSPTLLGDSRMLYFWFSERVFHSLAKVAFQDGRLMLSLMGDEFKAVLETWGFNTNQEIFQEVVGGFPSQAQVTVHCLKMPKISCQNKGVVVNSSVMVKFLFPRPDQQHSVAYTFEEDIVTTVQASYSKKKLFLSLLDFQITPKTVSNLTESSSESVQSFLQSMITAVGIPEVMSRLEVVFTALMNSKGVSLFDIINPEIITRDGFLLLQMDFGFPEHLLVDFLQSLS

SMILES | pIC50
Cc1ccccc1OCC(=O)Nc1ccc(-c2nc3cc([N+](=O)[O-])ccc3o2)cc1 | 6.03
Cc1ccc2oc(-c3ccc(NC(=O)COc4ccccc4C)cc3)nc2c1 | 5.70
Cc1ccccc1OCC(=O)Nc1ccc(-c2nc3ccc(F)cc3o2)cc1 | 5.12
Cc1ccccc1OCC(=O)Nc1ccc(-c2nc3ccc([N+](=O)[O-])cc3o2)cc1 | 5.49
Cc1ccccc1OCC(=O)Nc1ccc(-c2nc3cc(C(C)O)ccc3o2)cc1 (configuration not stated) | 5.47
Cc1ccccc1OCC(=O)Nc1ccc(-c2nc3cc(Br)cc(F)c3o2)cc1 | 6.04
CC(=O)c1cc(C#N)cc2nc(-c3ccc(NC(=O)COc4ccccc4C)cc3)oc12 | 7.07
CC#CC(C)(O)c1cc(C#N)cc2nc(-c3ccc(NC(=O)COc4ccccc4C)cc3)oc12 (configuration not stated) | 6.80
Cc1ccccc1OCC(=O)Nc1ccc(-c2nc3c(C)c(Br)ccc3o2)cc1 | < 4.00
Cc1ccccc1OCC(=O)Nc1ccc(-c2nc3cccc(Cl)c3o2)cc1 | 4.68
Cc1cc2oc(-c3ccc(NC(=O)COc4ccccc4C)cc3)nc2cc1Cl | < 4.00
Cc1ccccc1OCC(=O)Nc1ccc(-c2nc3cc(Br)cc(C(C)(C)O)c3o2)cc1 | 7.36
